Biological target: T1, Interleukin-1 receptor-associated kinase 4 (Homo sapiens, UniProt Q9NWZ3)
T1 sequence (Q9NWZ3 whole entry): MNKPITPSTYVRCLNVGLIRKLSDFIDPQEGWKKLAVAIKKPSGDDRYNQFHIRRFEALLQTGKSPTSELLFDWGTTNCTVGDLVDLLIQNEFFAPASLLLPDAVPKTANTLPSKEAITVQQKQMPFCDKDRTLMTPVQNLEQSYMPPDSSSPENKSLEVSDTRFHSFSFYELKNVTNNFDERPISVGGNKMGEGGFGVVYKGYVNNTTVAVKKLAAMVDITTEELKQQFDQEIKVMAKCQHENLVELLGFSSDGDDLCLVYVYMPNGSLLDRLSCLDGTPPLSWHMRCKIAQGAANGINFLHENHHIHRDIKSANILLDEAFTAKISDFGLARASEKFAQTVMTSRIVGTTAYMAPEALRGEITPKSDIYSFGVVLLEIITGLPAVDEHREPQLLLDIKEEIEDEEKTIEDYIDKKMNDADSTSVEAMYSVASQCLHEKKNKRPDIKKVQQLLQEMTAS
Experiment: IMAP technology (Molecular Devices): A 20 ul reaction mixture contains 10 mM TriHCl, pH 7.2, 0.5 nM GST tagged IRAK4 (SignalChem), 100 nM fluorescent peptide substrate (RP7030, Molecular Devices), 100 uM ATP, 1 mM DTT, 1 mM MgCl2, and 0.01% Tween 20. The reaction is initiated by the addition of ATP. After incubation for 30 minutes at 25° C., 60 ul of Progressive IMAP Reagent (Molecular Devices) is added to stop the reaction. Change in RP7030's FP is determined by a FP reader (Analyst HT, LJL BioSystems).

Row | Compound | IC50 [nM]
1 | O=c1[nH]c(N2CCc3ccccc3C2)nc(N[C@@H]2C[C@H](CO)[C@@H](O)[C@H]2O)c1-c1nc2ccccc2s1 | 27.5
2 | CC1(Nc2nc(N3CCOCC3)[nH]c(=O)c2-c2ccc3ccccc3n2)CCCNC1 (stereo unspecified) | 130
3 | COC(=O)N1CCC(c2nc(N[C@@H]3CCCNC3)c(-c3nc4ccccc4s3)c(=O)[nH]2)CC1 | 270
4 | O=c1[nH]c(N2CCc3ccccc3C2)nc(N[C@@H]2CCCNC2)c1-c1nc(-c2ccc(F)cc2)cs1 | 57
5 | Cc1csc(-c2c(N[C@@H]3CCCNC3)nc(N3CCOCC3)[nH]c2=O)n1 | 554
6 | CN1CCC(c2nc(N[C@@H]3CCCNC3)c(-c3nc4ccccc4s3)c(=O)[nH]2)CC1 | 690
7 | CC1(Nc2nc(N[C@@H]3C[C@H](CO)[C@@H](O)[C@H]3O)c(-c3nc4ccccc4s3)c(=O)[nH]2)CCC1 | 1690
8 | Nc1ccc2c(c1)CN(c1nc(N[C@@H]3CCCNC3)c(-c3nc4ccccc4s3)c(=O)[nH]1)CC2 | 49
9 | CS(=O)(=O)N1CCN(c2nc(N[C@@H]3CCCNC3)c(-c3nc4c(C5CC5)nccc4s3)c(=O)[nH]2)CC1 | 6.9
10 | Cc1cccc(-c2c(N[C@@H]3C[C@H](CO)[C@@H](O)[C@H]3O)nc(N3CCOCC3)[nH]c2=O)n1 | 214
11 | O=c1[nH]c(C2CCOCC2)nc(N[C@@H]2CCCNC2)c1-c1nc2ccccc2s1 | 380
12 | CC(C)(C)OC(=O)N1CC2(CCN(c3nc(N[C@@H]4CCCNC4)c(-c4nc5ccccc5s4)c(=O)[nH]3)CC2)C1 | 27
13 | CC(=O)N1CCC(c2nc(N[C@@H]3CCCNC3)c(-c3nc4ccccc4s3)c(=O)[nH]2)CC1 | 450
14 | N[C@H]1CCCC[C@H]1Nc1cccc2sc(-c3c(N[C@@H]4CCCNC4)nc(N4CCOCC4)[nH]c3=O)nc12 | 2
15 | O=c1[nH]c(N2CCC3(CC2)CNC3)nc(N[C@@H]2CCCNC2)c1-c1nc2ccccc2s1 | 40
16 | N[C@H]1CCCC[C@H]1Nc1cccc2sc(-c3c(N[C@@H]4CCCNC4)nc(N4CCOCC4)[nH]c3=O)nc12 (racemic) | 70

From ChEMBL document CHEMBL3886492, “Aminopyrimidinones as interleukin receptor-associated kinase inhibitors” (2015)
